Values quoted from earlier work in patent US20140030241A1 (NESTEC S.A., priority 2011, published 2014).

How the values were obtained:
Candida albicans = details: rodents on nucleotide free diet, Candida albicans challenge
Splenic lymphocytes = details: rodents on nucleotide free diets, additions to the diet
IgG and IgM response = details: rodents
[1] = enters circulation without being metabolized by the liver

Compound | survival time (Candida albicans) | IgG response (IgG and IgM response) | further results
O=c1cc[nH]c(=O)[nH]1 [uracil] | increase survival time |  | suppressed cell-mediated immune responses (proliferation to mitogens, IL-2 production, IL-2 receptor and Lyt-1 markers, delayed cutaneous hypersensitivity) (Splenic lymphocytes): largely reversed
O=c1ccn([C@@H]2O[C@H](COP(=O)(O)O)[C@@H](O)[C@H]2O)c(=O)[nH]1 [UMP, 5′-Uracil Monophosphate] |  | increased IgG response | 
Nc1nc2c(ncn2[C@@H]2O[C@H](COP(=O)(O)O)[C@@H](O)[C@H]2O)c(=O)[nH]1 [GMP, 5′-Guanosine Monophosphate] |  | increased IgG response | IgM response (IgG and IgM response): increase IgM response
Nc1ncnc2nc[nH]c12 [adenine] | not |  | 
Nc1ncnc2c1ncn2[C@@H]1O[C@H](COP(=O)(O)O)[C@@H](O)[C@H]1O [AMP, 5-Adenosine Monophosphate] |  | increased IgG response | 
NC(=O)NCCC[C@H](N)C(=O)O [citrulline] |  |  | conversion to arginine in the kidneys [1]: almost complete
